In assay [1] the test system is cholesterol level in serum. Kind of assay: Effect of reducing a lipid level in blood: serum cholesterol in hamsters fed 1% cholesterol / 0.5% cholic acid diet. The following applies: once a day for 5 days, relative to control group. Type of assay: in vivo, golden Syrian hamster. How it is done: The effect of reducing a lipid level in blood by the action of the compounds according to the present invention was determined as follows:
Male golden Syrian hamsters weighing from 80 to 100 g were randomly divided into groups. The hamsters were first fed standard laboratory diets (solid feed MF-1 for mouse/rat/hamster, manufactured by Oriental Yeast Industries, KK) for 3 days. Then, they were fed the experimental diet containing 1% cholesterol and 0.5% cholic acid (manufactured by Oriental Yeast Industries, KK), ad libitum. At the same time, the compounds of the invention formulated in a shown dose (0.1-10 mg/10 ml water/kg) were administrated to the animals orally once a day at a determined time for 5 days. Water was administrated orally to the hamsters of control group in an amount of 10 ml per 1 kg of body weight. After five days of administrating the compounds, the animals were anesthetized with Pentobarbital Na (Nembutal injection, manufactured by Dainabbot) and three hours after the final administration of the test compound, a blood sample was taken from abdominal cava. The serum was separated from the sample by centrifuging.
The cholesterol level in the serum was determined by using a blood cholesterol measuring kit, Determina-TC5 manufactured by Kyowa Medix Co. The results are represented by percent inhibition (%) of cholesterol level in serum relative to that of the control group, and shown in the following Table 2.

Assay [2] concerns the target acyl-CoA: cholesterol acyltransferase (ACAT). Kind of assay: ACAT inhibitory action: cholesteryl-[14C] oleate formation in hamster microsomes. It counts as biochemical. The conditions noted are these: radio-labelled oleoyl coenzyme A (14C). The method, then: The ACAT inhibitory action of the compounds according to the present invention was measured as follows:
ACAT activity in the hamster microsomes was determined by measuring the rate of radio-active cholesteryl-[^14 C] oleate formation from cholesterol and radio-labelled oleoyl coenzyme A (^14 C) with or without test compound.
Calculations of IC50 value were made using data of the percent inhibition at each compound concentration.

Where [3] appears, read: Mesocricetus auratus, po, 120 h, 0.1 mg/kg, read-out: Percent inhibition of cholesterol in serum.
[4] abbreviates: Mesocricetus auratus, po, 120 h, read-out: Percent inhibition of cholesterol in serum.

14 molecules from patent US5126483A, “1-phenylalkyl-3-phenylurea derivatives” (Mitsubishi Kasei Corporation, priority 1989, dated 1992) can be followed below.

Structures are written as SMILES.

Consider `CCCCCC(CNC(=O)Nc1c(C(C)C)cccc1C(C)C)c1cccc(OC)c1OC` (single isomer, unassigned; (+)) [Example 50, (+)-1-(2-(2,3-dimethoxyphenyl)heptyl)-3-(2,6-diisopropylpehyl)urea], for which the inhibition in vivo at 0.1 mg/kg in assay [1] (setting [3]) turned out to be 18%.

In the case of `CCCCCC(CNC(=O)Nc1c(C(C)C)cccc1C(C)C)c1cccc(OC)c1OC` (stereo not drawn) [Example 33], in assay [1] (setting [3]), the inhibition in vivo at 0.1 mg/kg worked out at 24%. This molecule also showed an IC50 in assay [2] of 0.016 µM.

Regarding `CCCCCC(CNC(=O)Nc1c(C(C)C)cccc1C(C)C)c1cccc(OC)c1OC` (single isomer, unassigned; (-)) [Example 51, (-)-1-(2-(2,3-dimethoxyphenyl)heptyl)-3-(2,6-diisopropylpheyl)urea], the “Percent inhibition of cholesterol in serum” value in assay [1] (0.1 mg/kg, oral) is recorded as 25%.

As for `CCCCC(CNC(=O)Nc1c(C(C)C)cccc1C(C)C)c1ccccc1C` (stereo not drawn) [Example 9], the inhibition in vivo at 1 mg/kg in assay [1] (setting [4]) turned out to be 19%. For the same molecule, 0.0049 µM corresponded to half-maximal inhibition in assay [2] (IC50).

Take `CCCCC(CNC(=O)Nc1c(C(C)C)cccc1C(C)C)c1cccc(OC)c1OC` (stereo not drawn) [Example 32]: in assay [1] (setting [4]), the inhibition in vivo at 1 mg/kg came out at 43%.

`CCCCCC(CNC(=O)Nc1c(C(C)C)cccc1C(C)C)c1cccc(C)c1` (stereo not drawn) [Example 12]: the inhibition in vivo at 1 mg/kg in assay [1] (setting [4]) worked out at 43%. Also, the IC50 in assay [2] was determined as 0.026 µM.

Take `CCCCCCC(CNC(=O)Nc1c(C(C)C)cccc1C(C)C)c1ccc(OC)c(OC)c1` (stereo not drawn) [Example 36]: the inhibition in vivo at 1 mg/kg in assay [1] (setting [4]) was determined as 26%.

As for `CCCCC(CNC(=O)Nc1c(C(C)C)cccc1C(C)C)c1ccc(C)cc1` (stereo not drawn) [Example 19], the inhibition in vivo at 1 mg/kg in assay [1] (setting [4]) amounted to 36%.

`CCCCCC(CNC(=O)Nc1c(C(C)C)cccc1C(C)C)c1cccc(OC)c1` (stereo not drawn) [Example 29]: in assay [1] (setting [4]), the inhibition in vivo at 1 mg/kg is 36%.

Regarding `CC(C)c1cccc(C(C)C)c1NC(=O)NCC(c1ccccc1)C(C)(C)C` (stereo not drawn) [compound 1, 1-(3,3-dimethyl-2-phenylbutyl)-3-(2,6-diisopropyl-phenyl)urea, reference compound], in assay [1] (Mesocricetus auratus, po, 120 h, 5 mg/kg, read-out: Percent inhibition of cholesterol in serum), the inhibition in vivo at 5 mg/kg is 5%.

Turning to `CCCCC(CNC(=O)Nc1c(C(C)C)cccc1C(C)C)c1cccc(CC)c1` (stereo not drawn) [Example 15], the inhibition in vivo at 1 mg/kg in assay [1] (setting [4]) was found to be 36%.

Consider `CCCCC(CNC(=O)Nc1c(C(C)C)cccc1C(C)C)c1ccc(C)c(C)c1C` (stereo not drawn) [Example 24], for which the inhibition in vivo at 1 mg/kg in assay [1] (setting [4]) turned out to be 39%.

With `CCCCC(CNC(=O)Nc1c(C(C)C)cccc1C(C)C)c1cccc(Cl)c1` (stereo not drawn) [Example 40], in assay [1] (setting [4]), the inhibition in vivo at 1 mg/kg is 38%. This molecule also displayed an IC50 in assay [2] of 0.031 µM.

As to `CCCCC(CNC(=O)Nc1c(C(C)C)cccc1C(C)C)Cc1ccc(Cl)cc1` (stereo not drawn) [Example 49], the inhibition in vivo at 10 mg/kg in assay [1] (Mesocricetus auratus, po, 120 h, 10 mg/kg (footnote 2), read-out: Percent inhibition of cholesterol in serum) was determined as 33%.

A word on the IC50: it is the midpoint of a concentration-inhibition curve.
